Reference: patent US7052908B2, “Androgen receptor coactivators” (University of Rochester, priority 1998, dated 2006)
Residue numbers refer to the chain shown, from its start. Values belong to the molecule of their own block, whether it stands above or below them.

Key:
wtAR = biological target: T1, wtAR (Homo sapiens, UniProt P10275); experiment: AR transactivation, transient transfection with MMTV-CAT reporter in DU145 cells; details: for AR transcriptional activity induction: 10 nM E2 or 1 μM HF
T1 sequence (P10275 1-920): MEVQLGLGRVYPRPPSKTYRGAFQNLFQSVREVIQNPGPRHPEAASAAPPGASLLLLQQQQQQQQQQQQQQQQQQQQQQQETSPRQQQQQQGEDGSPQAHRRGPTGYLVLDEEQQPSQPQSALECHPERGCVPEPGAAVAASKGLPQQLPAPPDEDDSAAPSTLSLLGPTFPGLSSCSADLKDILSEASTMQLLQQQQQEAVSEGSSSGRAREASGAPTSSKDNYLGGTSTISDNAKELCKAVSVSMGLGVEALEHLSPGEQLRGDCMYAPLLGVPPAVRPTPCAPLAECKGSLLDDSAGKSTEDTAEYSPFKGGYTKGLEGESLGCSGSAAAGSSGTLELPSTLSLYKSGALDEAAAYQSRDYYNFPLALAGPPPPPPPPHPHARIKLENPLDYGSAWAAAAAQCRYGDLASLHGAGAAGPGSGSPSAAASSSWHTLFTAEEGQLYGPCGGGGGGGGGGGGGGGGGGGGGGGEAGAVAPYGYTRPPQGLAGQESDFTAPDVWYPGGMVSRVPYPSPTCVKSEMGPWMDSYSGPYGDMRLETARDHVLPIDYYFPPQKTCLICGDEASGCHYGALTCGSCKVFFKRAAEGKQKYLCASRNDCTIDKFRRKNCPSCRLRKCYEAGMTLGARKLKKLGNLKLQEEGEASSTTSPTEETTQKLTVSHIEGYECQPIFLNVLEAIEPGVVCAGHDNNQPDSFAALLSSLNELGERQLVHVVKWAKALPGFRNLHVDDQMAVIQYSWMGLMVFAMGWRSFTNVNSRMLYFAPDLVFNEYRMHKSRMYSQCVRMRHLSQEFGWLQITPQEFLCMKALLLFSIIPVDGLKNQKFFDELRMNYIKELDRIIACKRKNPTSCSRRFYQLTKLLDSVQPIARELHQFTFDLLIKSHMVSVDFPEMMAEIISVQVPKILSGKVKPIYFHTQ

AR [1] = experiment: Mammalian two-hybrid assay with CAT reporter in DU145 cells; type: cell-based, human; details: DU145; 10 nM DHT, or E2 or HF
Source text: The mammalian two-hybrid system employed was essentially the protocol of Clontech (California), with the following modifications. […] The hinge and LBD of wtAR were then inserted into pGAL0. Similarly, the VP16 activation domain was fused to pCMX under the control of a CMV promoter, and designated pCMX-VP16 (provided by Dr. R. M. Evan).

mARe708k [2] = biological target: T2, mARe708k (Homo sapiens, UniProt P10275); experiment: AR transactivation, transient transfection CAT reporter assay, mutant AR; type: cell-based; details: mARe708k cotransfected with Rb and/or ARA70; 10 nM E2 or 1 μM HF
T2 construct: expressed in transfected cells; host or cells: DU145
T2 sequence (P10275 1-920 E710K): T1 sequence (P10275 1-920) with E710K

mARe708k [3] = biological target: T3, mARe708k (Homo sapiens, UniProt P10275, E710K); experiment: as above; type: cell-based
T3 construct: expressed in transfected cells; host or cells: DU145
T3 sequence (P10275 1-920 E710K): T1 sequence (P10275 1-920) with E710K

mARt877s = experiment: as above; type: cell-based, human
AR [4] = biological target: T4, AR (Homo sapiens, UniProt P10275); experiment: AR-activated transcription (CAT) in transfected H1299 cells; type: cell-based; set-up: expressed in transfected cells; host or cells: DU145 (A1), NCI H1299 (A7), PC3 (A8); details: H1299 cells with endogenous ARA54
T4 sequence (P10275 1-920): T1 sequence (P10275 1-920)
Source text: Since the C-terminal region of ARA54 (a.a. 361–471 of SEQ ID NO:2) isolated from prostate cDNA library has shown to be sufficient to interact with AR in yeast two-hybrid assays, we further investigated whether it could squelch the effect of ARA54 on AR-activated transcription in H1299 cells, which contain endogenous ARA54. The C-terminal region of ARA54 inhibits AR-mediated transcription by up to 70%; coexpression of exogenous full-length ARA54 reverses this squelching effect in a dose-dependent manner.
Human small lung carcinoma H1299 cell line, which has no endogenous AR protein, were transfected with AR and ARA24/Ran. Because ARA24/Ran is one of the most abundant and ubiquitously expressed proteins in various cells, both sense and antisense ARA24/Ran mammalian expression plasmids were tested.

response of wtAR transactivation to ligand (wtAR; E2 10^-9-10^-7 M or HF 10^-7-10^-5 M, in the presence or absence of ARA54): responded only marginally | AR transcriptional activity induction (wtAR; wild type AR cotransfected with Rb and ARA70): 12 fold | AR transcriptional activity induction (wtAR; wild type AR cotransfected with Rb or ARA70): 3–4 fold | response of wtAR transcriptional activity to ligand (wtAR; without ARA55, only at higher concentrations (10^-7 M for E2, 10^-5 M for HF)): responded marginally | AR transcriptional activity induction (mARe708k [2]): almost no induction | agonistic activity toward ARe708k (mARe708k [3]): no agonistic activity
Molecule: CC(C)(O)C(=O)Nc1ccc([N+](=O)[O-])c(C(F)(F)F)c1 [HF, hydroxyflutamide, reference compound]
CAT activity with GAL0AR and VP16-ARA55 cotransfected (AR [1]): not induced | response of Art877a transactivation to ligand (mARt877s; absence of ARA54, E2 10^-9-10^-7 M, HF 10^-7-10^-5 M): responded | response of LNCaP mAR to ligand compared to wtAR (mARt877s; compared to wtAR): responded much better

inhibition of AR-mediated transcription (AR [4]): up to 70%
B1: C-terminal region of ARA54: a.a. 361–471 of ARA54, dominant negative inhibitor of AR-mediated transcription (protein)
chain: ANFNQSGNIADSSLSFTFTNSSNGPNLITTQTNSQALSQPIASSNVHDNFMNNEITASKIDDGNNSKPLSPGWTDQTAYNAFGITTGMFNTTTMDDVYNYLFDDEDTPPNPKKERNEYLQADEANKRLLDQRYGKRVIQKALEEMESKEWLEKNSKSCPCCGTPIEKLDGCNKMTCTGCMQYFCWICMGSLSRANPYKHFNDPGSPCFNRLFYAVDVDDDIWEDE
